Values quoted from earlier work as cited in patent publication US5663205A, “Pharmaceutical composition for use in glaucoma treatment” (Senju Pharmaceutical Co. Ltd., priority 1992, dated 1997).

Test system: α-adrenergic
Details: cited from earlier work

Q: Which α-adrenergic blocking activity does the source give for COc1ccccc1OCCNCC(O)c1ccc(C)c(S(N)(=O)=O)c1.Cl (stereo not shown) [amosulalol hydrochloride, 5-[1-hydroxy-2-[2-(2-methoxyphenoxy)ethylamino]ethyl]-2-methylbenzenesulfonamide hydrochloride] here?
A: The α-adrenergic blocking activity was “exhibit both α-adrenergic and β-adrenergic blocking activities”.
